From patent US8008292B2, “Condensed benzamide compounds and inhibitors of vanilloid receptor subtype 1 (VR1) activity” (Japan Tobacco Inc., priority 2004, dated 2011)
Structures can show the parent of a compound that is named as a salt.

Target: T1, human VR1 (Homo sapiens, UniProt Q8NER1)
T1 construct: expressed in transfected cells
Assay: Inhibition of Ca2+ entry in cells caused by proton, in rat glioma (C6BU1) cells stably expressing human VR1 (Fura 2 fluorescence)
Assay type: cell-based
Conditions: inhibition of proton-induced Ca2+ entry
Procedure: The assay for evaluation of VR1 inhibition by the inventive compounds will be described below. The assay was intended to evaluate in vitro inhibition of Ca^2+ entry in cells caused by proton, one of the VR1 agonists.
Rat glioma (C6BU1) cells stably expressing human VR1 were suspended in 20 mM MES buffer (at pH 6.8, contg. 20 mM 2-morpholinoethanesulfonate (referred to as MES hereinafter), 115 mM NaCl, 5 mM KCl, 1 mM MgCl2 and 14 mM D-glucose) to make a cell density of 1×10^6 cells/mL. A fluorescent dye, Fura 2-AMsolution (DojindoCorporate, Cat. No. 343-05401) was added to the suspension to make a 5 μM concentration thereof. Further, Pluronic F-127 (Wako Pure Chemical Industries, Ltd., Cat. No. P6866) was added to make a 0.1% content thereof. Then, the suspension was incubated at 37° C. for 30 min. The cells were harvested and washed three times with 20 mM MES buffer. The cells were suspended again to make a cell density of 5×10^5 cells/mL. A 500-μL portion of the suspension was taken with a cuvette (MC MEDICAL, INC., Cat. No. SSR3121), to which 10 μL of 20 mM MES buffer containing 250 mM CaCl2 was added to incorporate Ca^2+ into the cells. At the same time, 5 μL of a test compound solution (in a range of 100 μM to 10 nM in DMSO) was also added to provide a final concentration thereof in a range of 1 μM to 0.1 nM. Alternatively, 5 μL of DMSO was added as control to provide a final concentration of 1% DMSO. The suspension was set in an intracellular ionometer (CAF-110; JASCO) 10 min after those additions. The cells were stimulated with protons by addition of 60 μL of 20 mM MES buffer at pH 1.1 to the suspension to set its pH at 5.5. The activity of the test compound was determined as a difference between the minimum of fluorescence intensity before agonist stimulation and its maximum after the stimulation. The value of IC50 was derived from percentage of inhibition by the test compound compared with the control.
In the tables, the symbol “++” indicates an IC50 value less than 100 nM and the symbol “+” indicates an IC50 value of 100 nM to 1,000 nM inclusive.

T1 sequence (Q8NER1 whole entry): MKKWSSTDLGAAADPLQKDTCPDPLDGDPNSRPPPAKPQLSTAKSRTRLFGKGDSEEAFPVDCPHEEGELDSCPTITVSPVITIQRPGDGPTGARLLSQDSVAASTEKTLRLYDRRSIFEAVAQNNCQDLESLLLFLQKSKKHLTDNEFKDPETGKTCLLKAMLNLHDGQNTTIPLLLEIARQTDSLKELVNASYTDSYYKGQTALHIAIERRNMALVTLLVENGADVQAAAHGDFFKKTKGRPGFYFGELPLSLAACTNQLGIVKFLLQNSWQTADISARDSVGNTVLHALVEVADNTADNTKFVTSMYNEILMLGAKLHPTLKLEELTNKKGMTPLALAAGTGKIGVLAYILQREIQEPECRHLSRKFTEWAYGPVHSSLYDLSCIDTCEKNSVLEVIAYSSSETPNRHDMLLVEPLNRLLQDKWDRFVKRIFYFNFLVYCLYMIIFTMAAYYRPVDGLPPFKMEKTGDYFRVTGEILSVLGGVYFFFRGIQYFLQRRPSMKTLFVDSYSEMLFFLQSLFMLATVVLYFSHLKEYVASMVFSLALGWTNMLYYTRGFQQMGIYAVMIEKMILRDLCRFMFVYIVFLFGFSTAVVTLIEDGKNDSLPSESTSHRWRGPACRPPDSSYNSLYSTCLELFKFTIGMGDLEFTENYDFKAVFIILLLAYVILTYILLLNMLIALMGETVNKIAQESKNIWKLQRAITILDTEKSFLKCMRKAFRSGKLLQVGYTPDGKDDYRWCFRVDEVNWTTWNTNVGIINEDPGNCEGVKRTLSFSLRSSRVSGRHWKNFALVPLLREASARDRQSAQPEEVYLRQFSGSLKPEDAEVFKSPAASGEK

Compound | IC50
Cc1ccc(N2CCOc3c(C(=O)Nc4ccc(N(CCO)C(C)C)c(F)c4)cccc32)nc1 [Example 1-166] | 100 to 1000 nM
CC(=O)OC1CCN(c2ccc(NC(=O)c3cccc4c3OCCN4c3ccc(C)cn3)cc2F)CC1 [Example 1-170] | 100 to 1000 nM
Cc1ccc(N2CCOc3c(C(=O)Nc4ccc(N5CCC(O)CC5)c(F)c4)cccc32)nc1 [Example 1-171] | 100 to 1000 nM
CCOC(=O)CO[C@H]1CC[C@H](NC(=O)c2cccc3c2OCCN3c2ccc(C)cn2)CC1 [Example 1-176] | 100 to 1000 nM
Cc1ccc(N2CCOc3c(C(=O)N[C@H]4CC[C@H](COC(C)C)CC4)cccc32)nc1 [Example 1-183] | 100 to 1000 nM
Cc1ccc(N2CCOc3c(C(=O)N[C@H]4CC[C@H](OCc5ccccc5)CC4)cccc32)nc1 [Example 1-190] | 100 to 1000 nM
O=C(O)c1cnc(N2CCOc3c(C(=O)Nc4ccc(OC(F)(F)F)c(Cl)c4)cccc32)c(Cl)c1 [Example 1-195] | 100 to 1000 nM
O=C(O)c1cnc(N2CCOc3c(C(=O)Nc4ccc(OC(F)(F)F)cc4)cccc32)c(Cl)c1 [Example 1-196] | 100 to 1000 nM
CCOc1ccc(N2CCOc3c(C(=O)Nc4ccc(OC(F)(F)F)cc4)cccc32)nc1 [Example 1-198] | 100 to 1000 nM
O=C(Nc1ccc(OC(F)(F)F)cc1)c1cccc2c1OCCN2c1ccc(OCCO)cn1 [Example 1-200] | 100 to 1000 nM
O=C(Nc1ccc(OC(F)(F)F)cc1)c1cccc2c1OCCN2c1ccc(O)cn1 [Example 1-201] | 100 to 1000 nM
O=C(OCc1ccccc1)c1cccnc1N1CCOc2c(C(=O)Nc3ccc(OC(F)(F)F)cc3)cccc21 [Example 1-207] | 100 to 1000 nM
O=C(Nc1ccc(OC(F)(F)F)cc1)c1cccc2c1OCCN2c1ncccc1O [Example 1-210] | 100 to 1000 nM
O=C(Nc1ccc(OC(F)(F)F)cc1)c1cccc2c1OCCN2c1ncccc1OCc1ccccn1 [Example 1-216] | 100 to 1000 nM
O=C(Nc1ccc(OC(F)(F)F)cc1)c1cccc2c1OCCN2c1ncccc1OCc1cccnc1 [Example 1-217] | 100 to 1000 nM
N#Cc1ccc(N2CCOc3c(C(=O)Nc4ccc(OC(F)(F)F)cc4)cccc32)nc1 [Example 1-218] | 100 to 1000 nM
O=C(Nc1ccc(C(F)(F)F)cc1)c1cccc2c1OC[C@H](C(=O)O)N2c1ncccc1Cl [Example 1-229] | 100 to 1000 nM
O=C(Nc1ccc(OC(F)(F)F)cc1)c1cccc2c1OC(CO)CN2c1ncccc1Cl (centres unmarked) [Example 1-231] | 100 to 1000 nM
O=C(Nc1ccc2c(c1)OCO2)c1cccc2c1OCCN2c1ncc(CO)cc1Cl [Example 2-01, N-(benzo[1,3]dioxol-5-yl)-4-(3-chloro-5-hydroxymethylpyridin-2-yl)-3,4-dihydro-2H-benzo[1,4]oxazine-8-carboxamide] | 100 to 1000 nM
O=C(Nc1ccc(C(F)(F)F)c(F)c1)c1cccc2c1OCCN2c1ncc(CO)cc1Cl [Example 2-06, N-(3-fluoro-4-trifluoromethylphenyl)-4-(3-chloro-5-hydroxymethylpyridin-2-yl)-3,4-dihydro-2H-benzo[1,4]oxazine-8-carboxamide] | < 100 nM
O=C(Nc1ccc(C(F)(F)F)cc1)c1cccc2c1OCCN2c1ccc(CO)cn1 [Example 2-07, N-(4-trifluoromethylphenyl)-4-(5-hydroxymethylpyridin-2-yl)-3,4-dihydro-2H-benzo[1,4]oxazine-8-carboxamide hydrochloride] | < 100 nM
CC(C)COc1ccc(NC(=O)c2cccc3c2OCCN3c2ccc(CO)cn2)cc1 [Example 2-08, 4-(5-hydroxymethylpyridin-2-yl)-N-(4-isobutyloxyphenyl)-3,4-dihydro-2H-benzo[1,4]oxazine-8-carboxamide] | < 100 nM
COCc1cnc(N2CCOc3c(C(=O)Nc4ccc(C(F)(F)F)cc4)cccc32)c(Cl)c1 [Example 2-09, 4-(3-chloro-5-methoxymethylpyridin-2-yl)-N-(4-trifluoromethylpheny)-3,4-dihydro-2H-benzo[1,4]oxazine-8-carboxamide] | < 100 nM
O=C(Nc1ccc(OC(F)(F)F)cc1)c1cccc2c1OCCN2c1ncccc1CO [Example 2-11, N-(4-trifluoromethoxyphenyl)-4-(3-hydroxymethylpyridin-2-yl)-3,4-dihydro-2H-benzo[1,4]oxazine-8-carboxamide] | 100 to 1000 nM
O=C(Nc1ccc(C(F)(F)F)nc1)c1cccc2c1OCCN2c1ncc(CO)cc1Cl [Example 2-16] | < 100 nM

Further lines, results first:

IC50 | Compound
< 100 nM | Cc1ccc(N2CCOc3c(C(=O)Nc4ccc(N(C)C)c(F)c4)cccc32)nc1 [Example 1-163]
< 100 nM | COCCN(c1ccc(NC(=O)c2cccc3c2OCCN3c2ccc(C)cn2)cc1F)C(C)C [Example 1-164]
< 100 nM | CC(=O)OCCN(c1ccc(NC(=O)c2cccc3c2OCCN3c2ccc(C)cn2)cc1F)C(C)C [Example 1-165]
< 100 nM | CCOC(=O)C1CCN(c2ccc(NC(=O)c3cccc4c3OCCN4c3ccc(C)cn3)cc2F)CC1 [Example 1-167]
< 100 nM | COC1CCN(c2ccc(NC(=O)c3cccc4c3OCCN4c3ccc(C)cn3)cc2F)CC1 [Example 1-169]
< 100 nM | COc1cc(NC(=O)c2cccc3c2OCCN3c2ccc(C)cn2)ccc1C [Example 1-172]
< 100 nM | Cc1ccc(N2CCOc3c(C(=O)Nc4ccc(C)c(OCCO)c4)cccc32)nc1 [Example 1-173]
< 100 nM | Cc1ccc(N2CCOc3c(C(=O)Nc4ccc(OC5CCN(C(=O)OC(C)(C)C)CC5)c(F)c4)cccc32)nc1 [Example 1-174]
< 100 nM | Cc1ccc(N2CCOc3c(C(=O)N[C@H]4CC[C@H](COC(C)(C)C)CC4)cccc32)nc1 [Example 1-186]
< 100 nM | Cc1ccc(N2CCOc3c(C(=O)N[C@H]4CC[C@H](OCC(C)C)CC4)cccc32)nc1 [Example 1-187]
< 100 nM | Cc1ccc(N2CCOc3c(C(=O)N[C@H]4CC[C@H](COCC(C)C)CC4)cccc32)nc1 [Example 1-189]
< 100 nM | Cc1ccc(N2CCOc3c(C(=O)N[C@H]4CC[C@H](C(C)C)CC4)cccc32)nc1 [Example 1-191]
< 100 nM | CCC[C@H]1CC[C@H](NC(=O)c2cccc3c2OCCN3c2ccc(C)cn2)CC1 [Example 1-192]
< 100 nM | Cc1ccc(N2CCOc3c(C(=O)N[C@H]4CC[C@H](OCC(C)(C)C)CC4)cccc32)nc1 [Example 1-193]
< 100 nM | COCc1ccc(N2CCOc3c(C(=O)Nc4ccc(C(C)(C)C)cc4)cccc32)nc1 [Example 1-194]
< 100 nM | CNc1ccc(N2CCOc3c(C(=O)Nc4ccc(OC(F)(F)F)cc4)cccc32)nc1 [Example 1-197]
< 100 nM | COc1cnc(N2CCOc3c(C(=O)Nc4ccc(OC(F)(F)F)cc4)cccc32)c(Cl)c1 [Example 1-199]
< 100 nM | COc1ccc(N2CCOc3c(C(=O)Nc4ccc(OC(F)(F)F)cc4)cccc32)nc1 [Example 1-202]
< 100 nM | N#Cc1cccnc1N1CCOc2c(C(=O)Nc3ccc(OC(F)(F)F)cc3)cccc21 [Example 1-203]
< 100 nM | O=C(Nc1ccc(OC(F)(F)F)cc1)c1cccc2c1OCCN2c1ncccc1OCc1ccccc1 [Example 1-209]
< 100 nM | COCc1cnc(N2CCOc3c(C(=O)Nc4ccc(OC(F)(F)F)cc4)cccc32)c(Cl)c1 [Example 1-220]
< 100 nM | NC(=O)c1cnc(N2CCOc3c(C(=O)Nc4ccc(OC(F)(F)F)cc4)cccc32)c(Cl)c1 [Example 1-227]
< 100 nM | CC(=O)NC[C@H]1COc2c(C(=O)Nc3ccc(C(F)(F)F)cc3)cccc2N1c1ncccc1Cl [Example 1-228]
< 100 nM | NC(=O)[C@H]1COc2c(C(=O)Nc3ccc(C(F)(F)F)cc3)cccc2N1c1ncccc1Cl [Example 1-233]
< 100 nM | CNC(=O)[C@H]1COc2c(C(=O)Nc3ccc(C(F)(F)F)cc3)cccc2N1c1ncccc1Cl [Example 1-234]
< 100 nM | O=C(Nc1ccc(OC(F)(F)F)cc1)c1cccc2c1OCCN2c1ncc(CO)cc1Cl [Example 2-03, N-(4-trifluoromethoxyphenyl)-4-(3-chloro-5-hydroxymethylpyridin-2-yl)-3,4-dihydro-2H-benzo[1,4]oxazine-8-carboxamide]
< 100 nM | O=C(Nc1ccc(OC(F)(F)F)c(Cl)c1)c1cccc2c1OCCN2c1ncc(CO)cc1Cl [Example 2-04, N-(3-chloro-4-trifluoromethoxypheny)-4-(3-chloro-5-hydroxymethylpyridin-2-yl)-3,4-dihydro-2H-benzo[1,4]oxazine-8-carboxamide]
< 100 nM | O=C(Nc1ccc(C(F)(F)F)cc1)c1cccc2c1OCCN2c1ncc(CO)cc1Cl [Example 2-05, N-(4-trifluoromethylphenyl)-4-(3-chloro-5-hydroxymethylpyridin-2-yl)-3,4-dihydro-2H-benzo[1,4]oxazine-8-carboxamide]
